This note sets out measurements from US20230000876A1, “TREATING CANCERS WITH A CYCLIN-DEPENDENT KINASE INHIBITOR” (Nuvation Bio Inc., priority 2021, published 2023).

One series has as its system COLO 829. The series is described as follows: Cell viability assay, melanoma cell line COLO 829. In kind it is cell-based. Here is the method: (§1) 4.4.4 Compound Plate (10×) Preparation and Compound Treatment • 10× concentrate compound plate preparation: Add 198 μL of assay medium into each well of the V-bottom plate; then transfer 2 μL of the stock compound solution of each concentration from the stock plate. Add 2 μL of DMSO into the Blank and Control wells. Pipette up and down to mix well. This V-plate is designated as the 10× concentrate compound plate. • For day 0 plate, add 15 μL of the DMSO-medium into the Control wells. The final DMSO concentration was 0.1%. Then directly proceed to cell viability assay. • For assay plate, add 15 μL of the compound-medium of each well from the 10× concentrate compound plate into the cells in 96-well assay plate according to the plate map. Add 15 μL of the DMSO-medium into the Blank and Control wells. The final DMSO concentration was 0.1%. • Return the assay plate into incubator and incubate for 6 days.
(§2) The procedures were performed according to the Promega CellTiter-Glo Luminescent Cell Viability Assay Kit manual (Promega-G7573). • The CellTiter-Glo buffer was thawed and equilibrated to room temperature prior to use. • CellTiter-Glo Substrate was equilibrated to room temperature prior to use. • The entire liquid volume of CellTiter-Glo Buffer was transferred into the amber bottle containing CellTiter-Glo Substrate to reconstitute the lyophilized enzyme/substrate mixture. […] Plates were covered with aluminum foil to protect from light. • The contents were mixed for 2 minutes on an orbital shaker to induce cell lysis. • The plate was incubated at room temperature for 20 minutes to stabilize luminescent signal. • Record luminescence on the 2104 EnVision plate reader.
(§3) Inhibition rate (IR) of the tested compounds was determined by the following formula: IR (%)=(1−(RLU compound−RLU day0)/(RLU control−RLU day0))*100%. The inhibitions of different dose of compound were calculated in Excel file, and then were used to plot inhibition curves and evaluate related parameters, such as Min (%), Max (%) and GI50. […]

A further series deals with SK-MEL-24. Briefly: Cell viability assay, melanoma cell line SK-MEL-24. The class given is cell-based. Here is the method:
as §1, §2, §3

Series [1] is described as follows: Pharmacokinetics and brain distribution after single oral dose, mice. The class given is in vivo, male CD1 mice. Here is the method:
The pharmacokinetics and brain distribution in maleCD1 mice and Sprague-Dawley rats following a single oral (PO) dose was evaluated. The compound of formula (I) was administered once at 10 mg/kg to mice and at 1, 10, 30, and 100 mg/kg to rats. All doses, compound of formula (I) concentrations, and derived PK parameters are expressed as the free base of the compound of formula (I).
The in-life portion of these studies was performed by Alliance Pharma (Malvern, Pa.) according to Protocols 200107-02 (mice) and 1910158-02 (rats). Animals were assigned randomly to the dose groups and were fasted 12 hours prior to dosing. Water was available ad libitum. The compound of formula (I) (as an HCl salt) was given to male CD1 mice at 10 mg/kg single PO dose, while in Sprague-Dawley rats, the doses were 1, 10, 30, and 100 mg/kg. In both studies, the compound of formula (I) was formulated in 0.5% hydroxypropyl methylcellulose (HPMC)/0.2% Tween 80 and the dosing volume was 5 mL/kg for all dose groups.
Whole blood was collected at 2, 4, 6, and 12 hours post dose from mice and predose and 1, 2, 4, 8, 12, and 24 hours post dose from rats into tubes containing dipotassium ethylenediaminetetraacetic acid (K2EDTA). Blood was obtained from 3 mice and 4 rats per time-point per dose level. The blood samples were processed into plasma analyzed at Alliance Pharma using the method as described below.
The brain tissue was collected from mice at 2, 4, 6, and 12 hours post dose and was collected from rats at 6 hours post dose given 1, 10, 30, or 100 mg/kg of the compound of formula (I). Brain tissue was obtained from 3 mice per time-point at the 10 mg/kg dose level and 4 rats per dose level at the 6-hour post dose time-point.
Brain tissue was rinsed by phosphate-buffered saline (PBS) buffer immediately after harvest, weighed, and mixed with solvent (MeOH:H2O [volume over volume of 20:80]) with a ratio of tissue to solvent of 1:4 (weight over volume). […] After homogenization, the homogenate was aliquoted out for sample analysis.
The concentrations of the compound of formula (I) in the plasma and brain homogenate were determined versus a calibration curve prepared in plasma and naïve brain homogenate, respectively. Samples were deproteinized with acetonitrile containing tolbutamide as internal standard. After centrifugation, the supernatants were analyzed by liquid chromatography with tandem mass spectrometry (LC-MS/MS). Chromatography was performed with a Zorbax SB-C18 (50×2.1 mm, […]) column under gradient conditions described in Table 22. Mobile Phase A (0.1% formic acid [FA] in water) and Mobile Phase B (0.1% FA in acetonitrile) were delivered as a flow rate of 0.8 mL/min. LC-MS/MS was performed using a positive TurboIonSpray® interface on a SciexAPI 4000 and multiple-reaction monitoring (MRM) over a concentration range of 1 ng/mL to 1000 (rats) or 2000 (mice) ng/mL for the plasma and brain homogenate samples.
The mean plasma concentration-time data of the compound of formula (I) was used to determine the pharmacokineticparameters by standard noncompartmental methods using Phoenix® WinNonlin (version 8.2.0; Certara, Princeton, N.J.). Graphs were plotted in Prism® (version 2.3.0; GraphPad, San Diego, Calif.). Concentrations were rounded to 3 significant figures.

The subject of a further series is U-118MG xenograft tumors. Briefly: U-118MG glioma subcutaneous xenograft model. In kind it is in vivo, female CB17 SCID mice. The following applies: Group 3: Compound (I) 30 mg/kg PO, QD; PG-D27.

Molecules are shown by their SMILES. Read-outs that look alike come from different tables or passages of the source. Where only a bound is given, the exact number is not on record here.

For orientation: GI50 means the concentration that inhibits growth by half. As a reminder, the TGI is how far tumour growth fell short of that in controls. Lower therefore signals little slowing of growth. `CC(C)N1CCOc2c(F)cc(-c3nc(Nc4ccc(C5CCN(C)CC5)cn4)ncc3F)cc21` [Compound (I), 5-fluoro-4-(8-fluoro-4-isopropyl-3,4-dihydro-2H-benzo[b][1,4]oxazin-6-yl)-N-(5-(1-methylpiperidin-4-yl)pyridin-2-yl)pyrimidin-2-amine]: the concentration for 50% growth inhibition (GI50) with COLO 829 (Homo sapiens, COLO-829, read-out: Absolute GI50) is 875 nM; in the series with SK-MEL-24 (Homo sapiens, SK-MEL-24, read-out: Absolute GI50), 151 nM. Further, the “Max (%)” value in the series on COLO 829 (inhibition rate) is listed as 107.94%; in the series with SK-MEL-24 (inhibition rate) it was 113.43%. For the same compound, the “Min (%)” value is recorded as −3.11% with COLO 829 (inhibition rate) and 1.36% with SK-MEL-24 (inhibition rate). Further, the “Half-life in brain versus plasma” value in series [1] (in vivo animal models, oral administration) was “longer half-life in the brain than in the plasma”. Besides, the Kp at 2 h in series [1] (male, CD1, mouse, brain, po, 10 mg/kg, mice, single PO 10 mg/kg, 2 h, read-out: Brain:Plasma Ratio, mean (SD)) worked out at 1.7. For the same compound, the Kp at 4 h in series [1] (male, CD1, mouse, brain, po, 10 mg/kg, mice, single PO 10 mg/kg, 4 h, read-out: Brain:Plasma Ratio, mean (SD)) was 2.1. Besides, in series [1] (male, CD1, mouse, brain, po, 10 mg/kg, mice, single PO 10 mg/kg, 6 h, read-out: Brain:Plasma Ratio, mean (SD)), the Kp at 6 h came out at 1.9. For the same compound, the Kp at 12 h in series [1] (male, CD1, mouse, brain, po, 10 mg/kg, mice, single PO 10 mg/kg, 12 h, read-out: Brain:Plasma Ratio, mean (SD)) was 3.3; in series [1] (male, CD1, mouse, brain, po, 10 mg/kg, mice, single PO 10 mg/kg, at 2, 4, 6, and 12 hours post-dose, read-out: Brain-to-plasma concentration ratio) it was above 1.5. The concentration at 2 h in series [1] (male, CD1, mouse, brain, mice, single PO 10 mg/kg, 2 h, read-out: Brain Conc) was determined as 309 ng/mL; in series [1] (male, CD1, mouse, plasma, mice, single PO 10 mg/kg, 2 h, read-out: Plasma Conc) it was 187 ng/mL. Further, the concentration at 4 h worked out at 436 ng/mL in series [1] (male, CD1, mouse, brain, mice, single PO 10 mg/kg, 4 h, read-out: Brain Conc) and 209 ng/mL in series [1] (male, CD1, mouse, plasma, mice, single PO 10 mg/kg, 4 h, read-out: Plasma Conc). The concentration at 6 h was 464 ng/mL in series [1] (male, CD1, mouse, brain, mice, single PO 10 mg/kg, 6 h, read-out: Brain Conc) and 247 ng/mL in series [1] (male, CD1, mouse, plasma, mice, single PO 10 mg/kg, 6 h, read-out: Plasma Conc). In addition, the concentration at 12 h turned out to be 345 ng/mL in series [1] (male, CD1, mouse, brain, mice, single PO 10 mg/kg, 12 h, read-out: Brain Conc) and 105 ng/mL in series [1] (male, CD1, mouse, plasma, mice, single PO 10 mg/kg, 12 h, read-out: Plasma Conc). The same compound yielded a tumour growth inhibition (TGI) with U-118MG xenograft tumors of 96.40%.
